According to US4043993A, “New pentapeptides and methods for their production” (Parke, Davis & Company, priority 1976, dated 1977):
Where “and” joins values, the source holds several entries; their conditions need not be identical. Equal values may be shown once. No end group written: not given here.

Tested on: LRF (luteinizing hormone release factor) induced luteinizing hormone (LH) release
Experiment: LRF antagonist activity in vitro in rat anterior pituitary cell cultures
Type: cell-based
From the text: Pentapeptides of this invention were screened for LRF antagonist activity in vitro using rat anterior pituitary cell cultures as described by Vale et. al. [Endocrinology, 91, 562 (1972)]. The inhibition of LRF (luteinizing hormone release factor) induced luteinizing hormone (LH) release into the culture medium is the endpoint in this in vitro bioassay.

[1] = Molar Conc. 1×10^-6, LRF Control 2.5×10^-10
[2] = Molar Conc. 1×10^-7, LRF Control 3.5×10^-10
[3] = Molar Conc. 2.5×10^-7, LRF Control 3.5×10^-10
[4] = Molar Conc. 6×10^-7, LRF Control 3.5×10^-10
[5] = Molar Conc. 6×10^-8, LRF Control 3.5×10^-10

Substance: LRF: luteinizing hormone releasing factor, also referred to as luteinizing hormone releasing hormone, or LH-RH; stimulates secretion of luteinizing hormone (QHWSYGLRPG; ends and bridges not checked; UniProt P01148 24-33, looked up) [reference compound]
- LH Value (LRF alone (LRF Control), Molar Conc. 2.5×10^-10): 38.98 ng/mL
- LH Value (LRF alone (LRF Control), Molar Conc. 3.5×10^-10): 33.78 ng/mL and 41.70 ng/mL and 58.17 ng/mL and 42.57 ng/mL

Substance: N-Benzyloxycarbonyl-D-2-azetidinecarbonyl-N^im -benzyl-L-histidyl-O-benzyl-L-tyrosyl-O-benzyl-L-seryl-D-alanine methyl ester
- % LH Release Inhibition [1]: 102%
- LH Value [1]: 5.72 ng/mL
- % LH Release Inhibition [2]: 53%
- LH Value [2]: 33.60 ng/mL
- % LH Release Inhibition [3]: 78%
- LH Value [3]: 22.34 ng/mL
- % LH Release Inhibition [4]: 89%
- LH Value [4]: 17.18 ng/mL
- % LH Release Inhibition [5]: 29%
- LH Value [5]: 44.92 ng/mL
